What was measured:
Type in all cases: ADME, microsome
Liver [1] = assay: Drug metabolism in human liver microsomes assessed as covalent binding per mg protein at 10 uM preincubated for 5 mins followed by NADPH addition measured after 30 mins by liquid scintillation counting; settings: 0.5 h
Liver [2] = assay: Drug level in human liver microsomes treated with 6-tert-butyl-8-fluoro-2-(2-(hydroxymethyl)-3-(1-methyl-5-(5-(methylsulfonyl)pyridin-2-ylamino)-6-oxo-1,6-dihydropyridin-3-yl)phenyl)phthalazin-1(2H)-one by UPLC-MS/MS method
Liver [3] = assay: Drug metabolism in human liver microsomes assessed as covalent binding per mg protein at 10 uM in absence of NADPH measured after 30 mins by liquid scintillation counting; settings: 0.5 h

Drug metabolism (Liver [1]) [pmol]	Drug metabolism (Liver [2])	Drug metabolism (Liver [3]) [pmol]	SMILES
52	–	–	CN(C)c1ccc2c(c1)CCN(c1cccc(-c3cc(Nc4ccc(C(=O)N5CCOCC5)cn4)c(=O)n(C)c3)c1[14CH2]O)C2=O
459	–	49	CN1CCN(c2ccc(Nc3cc(-c4cccc(-n5ncc6cc(C(C)(C)C)cc(F)c6c5=O)c4[14CH2]O)cn(C)c3=O)nc2)CC1
26	–	–	Cn1nc(-c2cccc(-n3ncc4cc(C(C)(C)C)cc(F)c4c3=O)c2[14CH2]O)cc(Nc2ccc(C(=O)N3CCOCC3)cn2)c1=O
422	–	–	Cn1cc(-c2cccc(N3CCc4cc(C(C)(C)C)ccc4C3=O)c2[14CH2]O)cc(Nc2ccc(C(=O)N3CCOCC3)cn2)c1=O
294	–	–	Cn1cc(-c2cccc(-n3ncc4cc(C(C)(C)C)cc(F)c4c3=O)c2[14CH2]O)cc(Nc2ccc(C(=O)N3CCOCC3)cn2)c1=O

Continued, molecule first:

SMILES	Drug metabolism (Liver [1]) [pmol]	Drug metabolism (Liver [2])	Drug metabolism (Liver [3]) [pmol]
CN1CCN(c2ccc(Nc3cc(-c4cccc(-n5ccc6cc(C7CC7)cc(F)c6c5=O)c4CO)cn(C)c3=O)nc2)CC1	294	–	–
Cn1cc(-c2cccc(-n3ncc4cc(C(C)(C)C)cc(F)c4c3=O)c2[14CH2]O)cc(Nc2ccc(S(C)(=O)=O)cn2)c1=O	386	–	–
CN1C(=O)/C(=N/c2ccc(S(C)(=O)=O)cn2)C=C(c2cccc(-n3ncc4cc(C(C)(C)C)cc(F)c4c3=O)c2CO)C1SC[C@H](NC(=O)CC[C@H](N)C(=O)O)C(=O)NCC(=O)O (stereo not given in full)	–	Metabolite_Detected	–
CN1C(=O)/C(=N/c2ccc(S(C)(=O)=O)cn2)C=C(c2cccc(-n3ncc4cc(C(C)(C)CO)cc(F)c4c3=O)c2CO)C1SC[C@H](NC(=O)CC[C@H](N)C(=O)O)C(=O)NCC(=O)O (stereo not given in full)	–	Metabolite_Detected	–
